What was measured:
Test in all cases: relative viability (nuclei count vs DMSO), 5 days (fraction); higher = more cells survive
[1] = system: NCI-H1734
How it was run: (§1)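 Five library-drug doses in √10 steps were combined with a fixed anchor-drug dose, or a single drug was given alone, by pin tool to lung cancer cell lines in 1536-well plates the day after seeding. Nuclei were stained and counted after 5 days. Relative viability is the nuclei count in treated wells over that in vehicle wells, taken as the median of duplicate plates.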

[2] = system: NCI-H647
How it was run: as §1

[3] = system: H3255
How it was run: as §1

[4] = system: NCI-H2009
How it was run: as §1

[5] = system: LCLC-97TM1
How it was run: as §1

[6] = system: NCI-H2126
How it was run: as §1

[7] = system: NCI-H727
How it was run: as §1

[8] = system: NCI-H1993
How it was run: as §1

[9] = system: SW 1573
How it was run: as §1

[10] = system: PC-14
How it was run: as §1

[11] = system: LXF-289
How it was run: as §1

[12] = system: NCI-H2347
How it was run: as §1

[13] = system: EMC-BAC-2
How it was run: as §1

[14] = system: EPLC-272H
How it was run: as §1

[15] = system: NCI-H661
How it was run: as §1

[16] = system: HOP-62
How it was run: as §1

[17] = system: SK-LU-1
How it was run: as §1

[18] = system: NCI-H322M
How it was run: as §1

[19] = system: NCI-H2085
How it was run: as §1

[20] = system: NCI-H2023
How it was run: as §1

[21] = system: NCI-H1915
How it was run: as §1

For `Nc1ccn([C@@H]2O[C@H](CO)[C@@H](O)[C@@H]2O)c(=O)n1` [Cytarabine] + CC(=O)Nc1cccc(-n2c(=O)n(C3CC3)c(=O)c3c(Nc4ccc(I)cc4F)n(C)c(=O)c(C)c32)c1 [Trametinib] (partner 0.02 µM), the relative viability ([1]; first compound 0.005 µM) was 0.361, the relative viability ([1]; first compound 0.01581 µM) was 0.264 and the relative viability ([1]; first compound 0.05 µM) was 0.203. For the same compound, the relative viability ([1]; first compound 0.1581 µM) was 0.132, the relative viability ([1]; first compound 0.5 µM) was 0.119 and the relative viability ([2]; first compound 0.005 µM) was 0.449. For the same compound, the relative viability ([2]; first compound 0.01581 µM) was 0.317, the relative viability ([2]; first compound 0.05 µM) was 0.22 and the relative viability ([2]; first compound 0.1581 µM) was 0.0976. For the same compound, the relative viability ([2]; first compound 0.5 µM) was 0.0793, the relative viability ([3]; first compound 0.005 µM) was 0.637 and the relative viability ([3]; first compound 0.01581 µM) was 0.652. For the same compound, the relative viability ([3]; first compound 0.05 µM) was 0.639, the relative viability ([3]; first compound 0.1581 µM) was 0.559 and the relative viability ([3]; first compound 0.5 µM) was 0.533. The relative viability ([4]; first compound 0.005 µM) was 0.271, the relative viability ([4]; first compound 0.01581 µM) was 0.25 and the relative viability ([4]; first compound 0.05 µM) was 0.249. It also gave a relative viability ([4]; first compound 0.1581 µM) of 0.238, a relative viability ([4]; first compound 0.5 µM) of 0.137 and a relative viability ([5]; first compound 0.005 µM) of 0.191. The relative viability ([5]; first compound 0.01581 µM) was 0.159, the relative viability ([5]; first compound 0.05 µM) was 0.173 and the relative viability ([5]; first compound 0.1581 µM) was 0.136. It also gave a relative viability ([5]; first compound 0.5 µM) of 0.135, a relative viability ([6]; first compound 0.005 µM) of 0.575 and a relative viability ([6]; first compound 0.01581 µM) of 0.505. The relative viability ([6]; first compound 0.05 µM) was 0.448, the relative viability ([6]; first compound 0.1581 µM) was 0.349 and the relative viability ([6]; first compound 0.5 µM) was 0.357. The relative viability ([7]; first compound 0.005 µM) was 0.348, the relative viability ([7]; first compound 0.01581 µM) was 0.374 and the relative viability ([7]; first compound 0.05 µM) was 0.354. For the same compound, the relative viability ([7]; first compound 0.1581 µM) was 0.336, the relative viability ([7]; first compound 0.5 µM) was 0.329 and the relative viability ([8]; first compound 0.005 µM) was 0.425. It also gave a relative viability ([8]; first compound 0.01581 µM) of 0.518, a relative viability ([8]; first compound 0.05 µM) of 0.498 and a relative viability ([8]; first compound 0.1581 µM) of 0.437. For the same compound, the relative viability ([8]; first compound 0.5 µM) was 0.432, the relative viability ([9]; first compound 0.005 µM) was 0.509 and the relative viability ([9]; first compound 0.01581 µM) was 0.482. It also gave a relative viability ([9]; first compound 0.05 µM) of 0.415, a relative viability ([9]; first compound 0.1581 µM) of 0.177 and a relative viability ([9]; first compound 0.5 µM) of 0.0822. It also gave a relative viability ([10]; first compound 0.005 µM) of 0.712, a relative viability ([10]; first compound 0.01581 µM) of 0.669 and a relative viability ([10]; first compound 0.05 µM) of 0.515. For the same compound, the relative viability ([10]; first compound 0.1581 µM) was 0.0885, the relative viability ([10]; first compound 0.5 µM) was 0.079 and the relative viability ([11]; first compound 0.005 µM) was 0.632. It also gave a relative viability ([11]; first compound 0.01581 µM) of 0.573, a relative viability ([11]; first compound 0.05 µM) of 0.62 and a relative viability ([11]; first compound 0.1581 µM) of 0.428. It also gave a relative viability ([11]; first compound 0.5 µM) of 0.287, a relative viability ([12]; first compound 0.005 µM) of 0.277 and a relative viability ([12]; first compound 0.01581 µM) of 0.309. It also gave a relative viability ([12]; first compound 0.05 µM) of 0.282, a relative viability ([12]; first compound 0.1581 µM) of 0.236 and a relative viability ([12]; first compound 0.5 µM) of 0.257. It also gave a relative viability ([13]; first compound 0.005 µM) of 0.972, a relative viability ([13]; first compound 0.01581 µM) of 0.902 and a relative viability ([13]; first compound 0.05 µM) of 0.842. The relative viability ([13]; first compound 0.1581 µM) was 0.497, the relative viability ([13]; first compound 0.5 µM) was 0.427 and the relative viability ([14]; first compound 0.005 µM) was 0.302. The relative viability ([14]; first compound 0.01581 µM) was 0.246, the relative viability ([14]; first compound 0.05 µM) was 0.283 and the relative viability ([14]; first compound 0.1581 µM) was 0.211. The relative viability ([14]; first compound 0.5 µM) was 0.22, the relative viability ([15]; first compound 0.005 µM) was 0.574 and the relative viability ([15]; first compound 0.01581 µM) was 0.571. It also gave a relative viability ([15]; first compound 0.05 µM) of 0.582, a relative viability ([15]; first compound 0.1581 µM) of 0.435 and a relative viability ([15]; first compound 0.5 µM) of 0.385. For the same compound, the relative viability ([16]; first compound 0.005 µM) was 0.352, the relative viability ([16]; first compound 0.01581 µM) was 0.327 and the relative viability ([16]; first compound 0.05 µM) was 0.261. It also gave a relative viability ([16]; first compound 0.1581 µM) of 0.23, a relative viability ([16]; first compound 0.5 µM) of 0.144 and a relative viability ([17]; first compound 0.005 µM) of 0.416. The relative viability ([17]; first compound 0.01581 µM) was 0.454, the relative viability ([17]; first compound 0.05 µM) was 0.423 and the relative viability ([17]; first compound 0.1581 µM) was 0.356. It also gave a relative viability ([17]; first compound 0.5 µM) of 0.303, a relative viability ([18]; first compound 0.005 µM) of 0.484 and a relative viability ([18]; first compound 0.01581 µM) of 0.456. It also gave a relative viability ([18]; first compound 0.05 µM) of 0.441, a relative viability ([18]; first compound 0.1581 µM) of 0.429 and a relative viability ([18]; first compound 0.5 µM) of 0.402. The relative viability ([19]; first compound 0.005 µM) was 0.504, the relative viability ([19]; first compound 0.01581 µM) was 0.552 and the relative viability ([19]; first compound 0.05 µM) was 0.5. For the same compound, the relative viability ([19]; first compound 0.1581 µM) was 0.26, the relative viability ([19]; first compound 0.5 µM) was 0.39 and the relative viability ([20]; first compound 0.005 µM) was 0.463. For the same compound, the relative viability ([20]; first compound 0.01581 µM) was 0.253, the relative viability ([20]; first compound 0.05 µM) was 0.169 and the relative viability ([20]; first compound 0.1581 µM) was 0.104. For the same compound, the relative viability ([20]; first compound 0.5 µM) was 0.0963, the relative viability ([21]; first compound 0.005 µM) was 0.438 and the relative viability ([21]; first compound 0.01581 µM) was 0.285. For the same compound, the relative viability ([21]; first compound 0.05 µM) was 0.251, the relative viability ([21]; first compound 0.1581 µM) was 0.211 and the relative viability ([21]; first compound 0.5 µM) was 0.18.
